Converted amounts (≈) assume the structure as drawn.
Columns and labels:
Streptococcus pyogenes [1] = assay: Antibacterial activity against Streptococcus pyogenes MTCC 442 at 250 ug/ml after 24 hrs by Kirby-Bauer method; type: functional; details: MTCC 442, 24 h, read-out: IZ
[2] = Selectivity index, ratio of CC50 for human MT4 cells to IC50 for HIV1 3B; type: functional
Aspergillus niger [3] = assay: Antifungal activity against Aspergillus niger MTCC 282 at 250 ug/ml after 74 hrs by Kirby-Bauer method; type: functional; details: MTCC 282, 74 h, read-out: IZ
[4] = Cytotoxicity against human HEL cells; type: cell-based
[5] = Cytotoxicity against human HEL cells assessed as alteration in cell morphology; type: cell-based
Aspergillus clavatus [6] = assay: Antifungal activity against Aspergillus clavatus MTCC 1323 at 250 ug/ml after 74 hrs by Kirby-Bauer method; type: functional; details: MTCC 1323, 74 h, read-out: IZ
Pseudomonas aeruginosa [7] = assay: Antibacterial activity against Pseudomonas aeruginosa MTCC 424 at 250 ug/ml after 24 hrs by Kirby-Bauer method; type: functional; details: MTCC 424, 24 h, read-out: IZ
Aspergillus niger [8] = assay: Antifungal activity against Aspergillus niger MTCC 282; type: functional
Human alphaherpesvirus 3 [9] = assay: Antiviral activity against thymidine kinase-deficient Varicella-zoster virus infected in HEL cells assessed as reduction in plaque formation; type: functional, organism-based; details: Human alphaherpesvirus 3, HEL
Escherichia coli [10] = assay: Antibacterial activity against Escherichia coli MTCC 443 after 24 hrs by broth dilution method; type: functional; details: MTCC 443, 24 h
Streptococcus pyogenes [11] = assay: Antibacterial activity against Streptococcus pyogenes MTCC 442 after 24 hrs by broth dilution method; type: functional; details: MTCC 442, 24 h
Candida albicans [12] = assay: Antifungal activity against Candida albicans MTCC 227; type: functional
[13] = Cytotoxicity against human MT4 cells by MTT assay; type: cell-based
Human alphaherpesvirus 3 [14] = assay: Antiviral activity against Varicella-zoster virus Oka expressing thymidine kinase infected in HEL cells assessed as reduction in plaque formation; type: functional, organism-based; details: Human alphaherpesvirus 3, strain Oka vaccine
[15] = tested on: Human immunodeficiency virus 1; assay: Antiviral activity against HIV1 3B infected in MT4 cells assessed as inhibition of virus-induced cytopathogenicity by MTT assay; type: functional, organism-based; details: Human immunodeficiency virus 1, 3B
Cytomegalovirus [16] = assay: Antiviral activity against Cytomegalovirus AD-169 infected in HEL cells assessed as reduction in plaque formation; type: functional, organism-based; details: Human betaherpesvirus 5, AD-169, HEL
Escherichia coli [17] = assay: Antibacterial activity against Escherichia coli MTCC 443 at 250 ug/ml after 24 hrs by Kirby-Bauer method; type: functional; details: MTCC 443, 24 h, read-out: IZ
Cytomegalovirus [18] = assay: Antiviral activity against Cytomegalovirus Davis in HEL cells assessed as reduction in plaque formation; type: functional, organism-based; details: Human betaherpesvirus 5, Davis
Pseudomonas aeruginosa [19] = assay: Antibacterial activity against Pseudomonas aeruginosa MTCC 424 after 24 hrs by broth dilution method; type: functional; details: MTCC 424, 24 h
Candida albicans [20] = assay: Antifungal activity against Candida albicans MTCC 227 at 250 ug/ml after 74 hrs by Kirby-Bauer method; type: functional; details: MTCC 227, 74 h, read-out: IZ
[21] = Selectivity index, ratio of CC50 for human MT4 cells to IC50 for HIV2 ROD; type: functional
Staphylococcus aureus [22] = assay: Antibacterial activity against Staphylococcus aureus MTCC 96 after 24 hrs by broth dilution method; type: functional; details: MTCC 96, 24 h
[23] = tested on: Human immunodeficiency virus 2; assay: Antiviral activity against HIV2 ROD infected in MT4 cells assessed as inhibition of virus-induced cytopathogenicity by MTT assay; type: functional, organism-based; details: Human immunodeficiency virus 2, ISOLATE ROD
Aspergillus clavatus [24] = assay: Antifungal activity against Aspergillus clavatus MTCC 1323; type: functional
Staphylococcus aureus [25] = assay: Antibacterial activity against Staphylococcus aureus MTCC 96 at 250 ug/ml after 24 hrs by Kirby-Bauer method; type: functional; details: MTCC 96, 24 h, read-out: IZ

Row | Structure (SMILES) | zone of inhibition at 250 µg/mL (Streptococcus pyogenes [1]) [mm] | Ratio CC50/IC50 [2] | zone of inhibition at 250 µg/mL (Aspergillus niger [3]) [mm] | CC50 [4] [µg/mL] | MCC [5] [µg/mL] | zone of inhibition at 250 µg/mL (Aspergillus clavatus [6]) [mm] | zone of inhibition at 250 µg/mL (Pseudomonas aeruginosa [7]) [mm] | MIC (Aspergillus niger [8]) [µg/mL] | EC50 (Human alphaherpesvirus 3 [9]) [µg/mL] | MIC (Escherichia coli [10]) [µg/mL] | MIC (Streptococcus pyogenes [11]) [µg/mL] | MIC (Candida albicans [12]) [µg/mL] | CC50 [13] [µg/mL] | EC50 (Human alphaherpesvirus 3 [14]) [µg/mL] | IC50 [15] [µg/mL] | EC50 (Cytomegalovirus [16]) [µg/mL] | zone of inhibition at 250 µg/mL (Escherichia coli [17]) [mm] | EC50 (Cytomegalovirus [18]) [µg/mL] | MIC (Pseudomonas aeruginosa [19]) [µg/mL] | zone of inhibition at 250 µg/mL (Candida albicans [20]) [mm] | further results
1 | Cc1ccc(-[n+]2noc([O-])c2CN2CCN(C3=Nc4ccccc4Sc4ccccc43)CC2)cc1 | 16 | <1 | 18 | 14.8 (≈ 30.6 µM) | ≥ 20 | 18 | 21 | 1000 (≈ 2070 µM) | > 20 | 250 (≈ 517 µM) | 500 (≈ 1030 µM) | 1000 (≈ 2070 µM) | 13.7 (≈ 28.2 µM) | > 20 | > 13.6 | > 4 | 19 | > 20 | 125 (≈ 258 µM) | 21 | Ratio CC50/IC50 [21]: <1; MIC (Staphylococcus aureus [22]): 200 µg/mL (≈ 414 µM); IC50 [23]: > 13.6 µg/mL; MIC (Aspergillus clavatus [24]): 1000 µg/mL (≈ 2070 µM); zone of inhibition at 250 µg/mL (Staphylococcus aureus [25]): 19 mm
2 | [O-]c1on[n+](-c2ccc(Cc3ccc(-[n+]4noc([O-])c4CN4CCN(C5=Nc6ccccc6Sc6ccccc65)CC4)cc3)cc2)c1CN1CCN(C2=Nc3ccccc3Sc3ccccc32)CC1 | 18 | <1 | 18 | 13.8 (≈ 14.5 µM) | 100 | 23 | 21 | 1000 (≈ 1050 µM) | > 4 | 250 (≈ 263 µM) | 250 (≈ 263 µM) | 500 (≈ 526 µM) | 11.6 (≈ 12.2 µM) | > 4 | > 11.6 | > 20 | 19 | > 20 | 125 (≈ 131 µM) | 25 | Ratio CC50/IC50 [21]: <1; MIC (Staphylococcus aureus [22]): 62.5 µg/mL (≈ 65.7 µM); IC50 [23]: > 11.6 µg/mL; MIC (Aspergillus clavatus [24]): 500 µg/mL (≈ 526 µM); zone of inhibition at 250 µg/mL (Staphylococcus aureus [25]): 23 mm
